Data reported in US10386375B2, “Methods and systems for the diagnosis and treatment of androgen disorders” (Function Promoting Therapies LLC, priority 2013, dated 2019).

Tests used:
[1] = Percent free testosterone calculated in serum samples from the TED trial; format: in vitro ADME, men
Protocol: Assessment of FT Concentrations in Clinical Trials. FT determined using the dynamic model developed in this study (cFTZBJ) and Vermeulen's equation (cFTV) (as implemented by Mazer, (Mazer 2009)) were compared with those measured using equilibrium dialysis in samples derived from randomized testosterone trials in men (Spitzer et al 2012) and women (Huang et al 2012). These samples had been collected in fasting state in the morning, stored at −80° C., and never thawed.
At baseline and after 12-weeks of testosterone or placebo administration, total testosterone concentrations were measured using LC-MS/MS and SHBG concentrations using a two-site immunofluorometric assay (DELFIA®, Perkin-Elmer, Waltham, Mass.) (21). FT was measured in the same samples by equilibrium dialysis(Bhasin et al 2012).
Application of new Multi-step Dynamic Binding Model with Complex Allostery to Clinical Trials Data. SHBG and albumin are predominantly the two proteins that bind testosterone with significant affinity; the binding affinities of transcortin and orosomucoid for testosterone are extremely low. […]

SHBG = target: T1, SHBG (Homo sapiens, UniProt P04278); conditions: Model A, Vermeulen's model: equal affinity for each monomer in SHBG dimer; fixed model value; cited from earlier work
T1 sequence (P04278 30-402): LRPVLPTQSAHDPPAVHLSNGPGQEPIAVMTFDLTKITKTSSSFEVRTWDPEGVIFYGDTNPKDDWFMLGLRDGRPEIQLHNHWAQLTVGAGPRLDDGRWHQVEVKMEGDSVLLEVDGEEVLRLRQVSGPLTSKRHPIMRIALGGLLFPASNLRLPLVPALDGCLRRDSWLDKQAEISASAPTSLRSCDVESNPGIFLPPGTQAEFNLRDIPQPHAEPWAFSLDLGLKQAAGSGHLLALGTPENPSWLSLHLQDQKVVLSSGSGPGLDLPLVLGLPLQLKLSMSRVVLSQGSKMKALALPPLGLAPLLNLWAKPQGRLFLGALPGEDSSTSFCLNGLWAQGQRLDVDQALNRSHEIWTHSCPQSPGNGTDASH

C[C@]12CC[C@H]3[C@@H](CCC4=CC(=O)CC[C@@]43C)[C@@H]1CC[C@@H]2O [testosterone, 17-β-hydroxyandrost-4-en-3-one]
fraction of circulating testosterone which is free ([1]; calculated with the new dynamic model (cFTZBJ), clinical trial samples): 2.9±0.4% | % cFTV ([1]; percent free testosterone calculated with Vermeulen's equation, as generally assumed): 1.5±0.4% | Kd (SHBG): 1 nM
